Patent publication US8277807B2, “Pharmaceutical combinations” (Astex Therapeutics Limited, priority 2006, dated 2012)
pIC50, pKd: −log10 of the molar value. Structures can show the parent of a compound that is named as a salt.

How the values were obtained:
[1] = Salt properties of the L-lactate of compound (1); type: physicochemical
HCT116 cell line = assay: Anti-proliferative activity, Alamar Blue assay; type: cell-based; settings: Homo sapiens, HCT-116, 72 h, read-out: IC50 value against the HCT116 cell line
Experimental: The anti-proliferative activities of compounds for use in the combinations of the invention can be determined by measuring the ability of the compounds to inhibition of cell growth in a number of cell lines such as the human colon cancer cell line HCT116. […] The method is based on the ability of viable cells to reduce resazurin to its fluorescent product resorufin. […] The number of viable cells is determined by Alamar Blue assay as before. Cell lines can be obtained from the ECACC (European Collection of cell Cultures).

[2] = molecular target: T1, Human Hsp90α N-terminal domain (Homo sapiens, UniProt P07900); assay: Isothermal titration calorimetry (ITC) binding to Hsp90; settings: 25 mM Tris, 100 mM NaCl, 1 mM MgCl2, 1 mM TCEP, 5% DMSO, pH 7.4
T1 construct: Cloning, expression, and purification of the Human Hsp90α N-terminal domain were performed according to published methods; made in house
Experimental: The ability of the compounds for use in the combinations of the invention to bind to human Hsp90 proteins was determined using isothermal titration calorimetry.
Isothermal titration calorimetry (ITC) experiments were performed with a VP-ITC titration calorimeter (Microcal Inc., Northampton, Mass., USA). […] All solutions were filtered and degassed prior to a titration being carried out. The enthalpy change resulting from each injection of ligand was obtained through integration of the calorimetric signal. Data were analysed using Origin 7.0 (Microcal Software Inc., Northampton, Mass.). Heats of dilution were estimated using the final injections of each individual titration and subtracted before data fitting. Different ITC experimental formats were employed in order to obtain compound dissociation constants (Kd's) over a wide range of affinities. […] In this type of experiment the stoichiometry parameter (N) was locked at 1 for data fitting.

[3] = Solid-state stability of L-lactate crystal forms (XRPD); type: physicochemical; settings: in air; 40° C. and 75% RH where stated
Source text: Samples for X-ray powder diffraction (XRPD) data collection were gently ground by marble mortar and loaded into a crystallographic capillary (from Hampton Research, Quartz or Glass Type 10, 0.4 or 0.7 mm diameter). Diffraction patterns were collected at room temperature using CuKα radiation (λ=1.5418 Å) from a Rigaku rotating anode RU3HR, Osmic blue confocal optics, ¼ c goniometer and a Rigaku HTC image plate detector. 2D Images were collected while spinning φ axis with a detector to crystal distance of 250 mm. Data collection was controlled by CrystalClear software and 2D images were converted to 1D plot (20 vs. Intensity) by Datasqueeze (intensity averaged over the azimuthal angle 0<χ<360° for 2θ range 3-30° in 0.02° steps). In house program AstexXRPD was used for manipulation and visualisation of 1D XRPD patterns.

OVCAR-3 tumour cells = settings: concentrations of 50 and 100 microM; PKB amplified; cited from earlier work
PKA = settings: data published 2002; read-out: IC50, inhibition of PKA; cited from earlier work
PKG = settings: data published 2002; read-out: IC50, inhibition of PKG; cited from earlier work
PKC = settings: data published 2002; read-out: IC50, inhibition of PKC; cited from earlier work
APL patients = settings: in vivo; cited from earlier work
[4] = test system: P-glycoprotein-overexpressing subline of CCRF-CEM; settings: subline of leukemic cell line CCRF-CEM; Chou et al. 1998; read-out: IC50 against P-glycoprotein-overexpressing subline; cited from earlier work

SMILES: CC(C)c1cc(C(=O)N2Cc3ccc(CN4CCN(C)CC4)cc3C2)c(O)cc1O.C[C@H](O)C(=O)O [(2,4-dihydroxy-5-isopropyl-phenyl)-[5-(4-methyl-piperazin-1-ylmethyl)-1,3-dihydro-isoindol-2-yl]-methanone L-lactate salt]
- hygroscopicity [1]: non-hygroscopic
- rate of solubility ([1]; compared with free base and hydrochloric and sulphuric acid salts): better rate of solubility than the free base and other salts tested

SMILES: CC(C)c1cc(C(=O)N2Cc3ccccc3C2)c(O)cc1O [Example 5, (1,3-Dihydro-1H-isoindol-2-yl)-(2,4-dihydroxy-5-isopropyl-phenyl)-methanone]
- pIC50 (HCT116 cell line): > 6.00

SMILES: CC(C)c1cc(C(=O)N2Cc3ccc(C(=O)N4CCNCC4)cc3C2)c(O)cc1O [Example 54, (2,4-dihydroxy-5-isopropyl-phenyl)-[5-(piperazine-1-carbonyl)-1,3-dihydro-isoindol-2-yl]-methanone hydrochloride]
- pIC50 (HCT116 cell line): > 6.00

SMILES: CC(C)c1cc(C(=O)N2Cc3ccc(CN4CCN(C)CC4)cc3C2)c(O)cc1O [Example 55, (2,4-dihydroxy-5-isopropyl-phenyl)-[5-(4-methyl-piperazin-1-ylmethyl)-1,3-dihydro-isoindol-2-yl]-methanone]
- pKd [2]: > 7.00

SMILES: CC(C)c1cc(C(=O)N2Cc3ccc(CN4CCN(C)CC4)cc3C2)c(O)cc1O.C[C@H](O)C(=O)O [Form FL1, (2,4-dihydroxy-5-isopropyl-phenyl)-[5-(4-methyl-piperazin-1-ylmethyl)-1,3-dihydro-isoindol-2-yl]-methanone L-lactate]
- stability of crystal form [3]: stable in air and at 40 °C and 75% RH for at least one month

SMILES: CC(C)c1cc(C(=O)N2Cc3ccc(CN4CCN(C)CC4)cc3C2)c(O)cc1O.C[C@H](O)C(=O)O [Form FL3, (2,4-dihydroxy-5-isopropyl-phenyl)-[5-(4-methyl-piperazin-1-ylmethyl)-1,3-dihydro-isoindol-2-yl]-methanone L-lactate]
- stability of crystal form [3]: transforms in air into form FL1

SMILES: O=S(=O)(NCCNCC=C(c1ccccc1)c1ccccc1)c1cccc2cnccc12 [NL-71-101]
- Apoptosis in OVCAR-3 tumour cells (OVCAR-3 tumour cells): induced apoptosis
- pIC50 (PKA): 5.05
- pIC50 (PKG): 4.44
- pIC50 (PKC): 3.98

SMILES: CC1=C(/C=C/C(C)=C/C=C/C(C)=C/C(=O)O)C(C)(C)CCC1 [Tretinoin, all-trans retinoic acid]
- remissions in APL patients (APL patients): 64-100%

SMILES: C/C1=C/C[C@@H](/C(C)=C/c2csc(C)n2)OC(=O)C[C@H](O)C(C)(C)C(=O)[C@H](C)[C@@H](O)[C@@H](C)CCC1 [desoxyepothilone B]
- pIC50 [4]: 7.77

SMILES: CC(C)c1cc(C(=O)N2Cc3ccc(CN4CCN(C)CC4)cc3C2)c(O)cc1O.C[C@H](O)C(=O)O [form FL2, (2,4-dihydroxy-5-isopropyl-phenyl)-[5-(4-methyl-piperazin-1-ylmethyl)-1,3-dihydro-isoindol-2-yl]-methanone L-lactate]
- stability of crystal form [3]: stable in air
